Measured values from US20220106289A1, “NLRP3 INHIBITORS” (INFLAZOME LIMITED, priority 2018, published 2022).
Where a name gives a salt, the structure may show the parent alone.

molecular target: NLRP3 (Homo sapiens, UniProt Q96P20); assay: THP-1 cells pyroptosis assay (LPS + nigericin, resazurin read-out); assay type: cell-based; parameters: Seed THP-1 cells (25,000 cells/well) containing 1.0 μg/ml LPS; host or cells: THP-1 cells; details: NLRP3 inhibitory activity, 1 μg/ml LPS, 5 μM nigericin
Procedure: The cells were routinely passaged and grown to confluency (˜10^6 cells/ml). On the day of the experiment, THP-1 cells were harvested and resuspended into RPMI medium (without FBS). The cells were then counted and viability (>90%) checked by Trypan blue (Sigma #T8154). […] To this diluted cell solution was added LPS (Sigma #L4524) to give a 1 μg/ml Final Assay Concentration (FAC). 40 μl of the final preparation was aliquoted into each well of a 96-well plate. The plate thus prepared was used for compound screening. The following method step-by-step assay was followed for compound screening. • 1. […] Incubate for 3 hrs at 37° C., 5% CO2 • 4. Add 5 μl nigericin (Sigma #N7143) (FAC 5 μM) to all wells • 5. Incubate for 1 hr at 37° C., 5% CO2 • 6. At the end of the incubation period, spin plates at 300×g for 3 mins and remove supernatant • 7. Then add 50 μl of resazurin (Sigma #R7017) (FAC 100 μM resazurin in RPMI medium without FBS) and incubate plates for a further 1-2 hrs at 37° C. and 5% CO2 • 8.

NLRP3, sequence (Q96P20 whole entry): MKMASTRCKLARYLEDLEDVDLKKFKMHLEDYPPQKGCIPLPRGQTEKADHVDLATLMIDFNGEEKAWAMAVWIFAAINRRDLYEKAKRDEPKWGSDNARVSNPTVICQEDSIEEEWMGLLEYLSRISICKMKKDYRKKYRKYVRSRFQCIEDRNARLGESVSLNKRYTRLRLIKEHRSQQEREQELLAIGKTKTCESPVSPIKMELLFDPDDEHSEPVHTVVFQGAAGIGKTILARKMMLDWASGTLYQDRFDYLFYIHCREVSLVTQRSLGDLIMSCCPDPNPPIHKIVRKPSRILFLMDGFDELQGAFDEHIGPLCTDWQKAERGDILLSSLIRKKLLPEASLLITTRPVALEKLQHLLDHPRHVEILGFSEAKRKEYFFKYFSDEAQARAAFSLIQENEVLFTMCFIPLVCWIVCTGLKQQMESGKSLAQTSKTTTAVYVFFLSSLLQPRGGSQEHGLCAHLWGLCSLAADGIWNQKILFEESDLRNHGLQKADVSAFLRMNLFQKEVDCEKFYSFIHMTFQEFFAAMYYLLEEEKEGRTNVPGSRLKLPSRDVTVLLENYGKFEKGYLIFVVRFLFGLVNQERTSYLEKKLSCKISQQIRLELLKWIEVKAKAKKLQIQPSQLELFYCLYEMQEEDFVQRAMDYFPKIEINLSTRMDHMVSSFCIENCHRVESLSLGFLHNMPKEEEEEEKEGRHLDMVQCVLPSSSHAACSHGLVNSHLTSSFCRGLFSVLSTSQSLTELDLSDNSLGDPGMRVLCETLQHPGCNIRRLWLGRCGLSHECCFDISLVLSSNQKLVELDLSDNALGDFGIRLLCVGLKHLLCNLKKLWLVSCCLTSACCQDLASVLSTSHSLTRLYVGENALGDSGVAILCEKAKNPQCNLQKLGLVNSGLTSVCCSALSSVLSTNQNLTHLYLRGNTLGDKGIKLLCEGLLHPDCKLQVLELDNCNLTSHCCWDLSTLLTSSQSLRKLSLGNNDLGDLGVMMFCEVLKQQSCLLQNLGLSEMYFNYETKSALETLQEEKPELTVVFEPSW

Row | Structure (SMILES) | IC50 [µM]
1 | CC(C)c1cc(F)cc2c1C(C(=O)NS(=O)(=O)c1cc(C(C)(C)O)cs1)CC2(C)C (single isomer, unassigned) [Example 9, 5-Fluoro-N-((4-(2-hydroxypropan-2-yl)thiophen-2-yl)sulfonyl)-7-isopropyl-3,3-dimethyl-2,3-dihydro-1H-indene-1-carboxamide, potassium salt (rotamer P2)] | 5 to 10
2 | COc1cc(-c2ccc3c(c2CC(=O)NS(=N)(=O)C2CN(C(C)C)C2)CCC3)ccn1 (centres unmarked) [Example 25, N-(1-Isopropylazetidine-3-sulfonimidoyl)-2-(5-(2-methoxypyridin-4-yl)-2,3-dihydro-1H-inden-4-yl)acetamide] | 5 to 10
3 | CC(C)c1cc(F)cc(C(C)C)c1CC(=O)NS(=O)(=O)c1cnc(C(C)(C)O)s1 [Example 27, 2-(4-Fluoro-2,6-diisopropylphenyl)-N-((2-(2-hydroxypropan-2-yl)thiazol-5-yl)sulfonyl)acetamide] | 1 to 5
4 | CC(C)c1cc(F)cc(C(C)C)c1CC(=O)NS(=O)(=O)c1ccn(C(C)C)n1 [Example 26, 2-(4-Fluoro-2,6-diisopropylphenyl)-N-((1-isopropyl-1H-pyrazol-3-yl)sulfonyl)acetamide] | 1 to 5
5 | COc1cc(-c2ccc3c(c2NC(=O)N[S+]([O-])c2ccn(C(C)C)n2)CCC3)ccn1 (centres unmarked) [Example 23, 1-Isopropyl-N-((5-(2-methoxypyridin-4-yl)-2,3-dihydro-1H-inden-4-yl)carbamoyl)-1H-pyrazole-3-sulfinamide] | 1 to 5
6 | CC(C)(O)c1coc(S(=O)(=O)NC(=O)Cc2noc3ccccc23)c1 [Example 90, 2-(Benzo[d]isoxazol-3-yl)-N-((4-(2-hydroxypropan-2-yl)furan-2-yl)sulfonyl)acetamide] | 1 to 5
7 | CCOC(=O)c1cc(S(=O)(=O)NC(=O)Nc2c3c(cc4c2CCC4)CCC3)nn1C [Example 79, Ethyl 3-(N-((1,2,3,5,6,7-hexahydro-s-indacen-4-yl)carbamoyl)sulfamoyl)-1-methyl-1H-pyrazole-5-carboxylate] | 0.5 to 1
8 | CC(C)(O)c1coc(S(=O)(=O)NC(=O)Cc2cc(Cl)cc(OC(F)(F)F)c2)c1 [Example 91, 2-(3-Chloro-5-(trifluoromethoxy)phenyl)-N-((4-(2-hydroxypropan-2-yl)furan-2-yl)sulfonyl)acetamide] | 1 to 5
9 | CC(C)c1cc(F)cc2c1C(C(=O)NS(=O)(=O)c1cc(C(=O)N(C)C)n(C)n1)CC2(C)C (centres unmarked) [Example 11, 3-(N-(5-Fluoro-7-isopropyl-3,3-dimethyl-2,3-dihydro-1H-indene-1-carbonyl)sulfamoyl)-N,N,1-trimethyl-1H-pyrazole-5-carboxamide] | 5 to 10
10 | CC(C)(O)c1coc(S(=O)(=O)NC(=O)Cn2ncc3ccccc32)c1 [Example 89, N-((4-(2-Hydroxypropan-2-yl)furan-2-yl)sulfonyl)-2-(1H-indazol-1-yl)acetamide] | 1 to 5
11 | CC(C)c1cccc(C(C)C)c1NC(=O)NS(=O)(=O)c1cnn(CC(F)(F)F)c1 [Example 76, N-((2,6-Diisopropylphenyl)carbamoyl)-1-(2,2,2-trifluoroethyl)-1H-pyrazole-4-sulfonamide] | 5 to 10
12 | CC(C)c1cccc(O[C@H]2CCOC2)c1NC(=O)NS(=O)(=O)c1ccn(C(C)C)n1 [Example 86, (S)-1-Isopropyl-N-((2-isopropyl-6-((tetrahydrofuran-3-yl)oxy)phenyl)carbamoyl)-1H-pyrazole-3-sulfonamide] | 1 to 5
13 | CC(C)OS(=O)(=O)NC(=O)Nc1c2c(cc3c1CCC3)CCC2 [Example 87, Isopropyl (1,2,3,5,6,7-hexahydro-s-indacen-4-yl)carbamoylsulfamate, sodium salt] | 1 to 5
14 | CC(C)n1ccc(S(=O)(=O)NC(=O)Nc2c3c(c(C#N)c4c2CCC4)CCC3)n1 [Example 37, N-((8-Cyano-1,2,3,5,6,7-hexahydro-s-indacen-4-yl)carbamoyl)-1-isopropyl-1H-pyrazole-3-sulfonamide] | 0.25 to 0.5
15 | COc1cc(-c2ccc3c(c2NC(=O)NCc2nnn[nH]2)CCC3)ccn1 [Example 88, 1((1H-Tetrazol-5-yl)methyl)-3-(5-(2-methoxypyridin-4-yl)-2,3-dihydro-1H-inden-4-yl)urea] | 5 to 10
16 | CC(C)c1cccc(O[C@@H]2CCOC2)c1NC(=O)NS(=O)(=O)c1ccn(C(C)C)n1 [Example 85, (R)-1-Isopropyl-N-((2-isopropyl-6-((tetrahydrofuran-3-yl)oxy)phenyl)carbamoyl)-1H-pyrazole-3-sulfonamide] | 5 to 10

Row | Structure (SMILES) | IC50 [µM]
17 | CC(C)c1cc(F)cc(C(C)C)c1CC(=O)NS(=O)(=O)c1cc(C(C)(C)O)n(C)n1 [Example 32, 2-(4-Fluoro-2,6-diisopropylphenyl)-N-((5-(2-hydroxypropan-2-yl)-1-methyl-1H-pyrazol-3-yl)sulfonyl)acetamide, ammonium salt] | 1 to 5
18 | CCOC(=O)CNC(=O)Nc1c2c(cc(C)c1-c1ccnc(OC3CCN(C)CC3)c1)CCC2 [Example 97, Ethyl 2-(3-(6-methyl-5-(2-((1-methylpiperidin-4-yl)oxy)pyridin-4-yl)-2,3-dihydro-1H-inden-4-yl)ureido)acetate] | 1 to 5
19 | CC(C)(O)c1coc(S(=O)(=O)NC(=O)Cc2cc(Cl)cc(C(F)(F)F)c2)c1 [Example 92, 2-(3-Chloro-5-(trifluoromethyl)phenyl)-N-((4-(2-hydroxypropan-2-yl)furan-2-yl)sulfonyl)acetamide] | 5 to 10
20 | CC(C)(O)c1coc(S(=O)(=O)NC(=O)Cc2cccc(I)c2)c1 [Example 93, N-((4-(2-Hydroxypropan-2-yl)furan-2-yl)sulfonyl)-2-(3-iodophenyl)acetamide] | 5 to 10
21 | Cc1nn(C(C)C)cc1S(=O)(=O)NC(=O)Nc1c2c(cc3c1CCC3)CCC2 [Example 43, N-((1,2,3,5,6,7-Hexahydro-s-indacen-4-yl)carbamoyl)-1-isopropyl-3-methyl-1H-pyrazole-4-sulfonamide, sodium salt] | 0.25 to 0.5
22 | CC(C)c1cccc(C(C)C)c1NC(=O)NS(=O)(=O)c1ccn(C(C)C)n1 [Example 68, N-((2,6-Diisopropylphenyl)carbamoyl)-1-isopropyl-1H-pyrazole-3-sulfonamide, sodium salt] | 1 to 5
23 | COc1cc(-c2cc(F)cc(C(C)C)c2CCC(=O)NS(=O)(=O)c2cc(C(C)(C)O)cs2)ccn1 [Example 5, 3-(4-Fluoro-2-isopropyl-6-(2-methoxypyridin-4-yl)phenyl)-N-((4-(2-hydroxypropan-2-yl)thiophen-2-yl)sulfonyl)propanamide] | 5 to 10
24 | CC(C)c1cc(F)cc(C(C)C)c1CC(=O)NS(=O)(=O)c1cc(C(C)(C)O)n(C(C)C)n1 [Example 29, 2-(4-Fluoro-2,6-diisopropylphenyl)-N-((5-(2-hydroxypropan-2-yl)-1-isopropyl-1H-pyrazol-3-yl)sulfonyl)acetamide] | 5 to 10
25 | CC(C)c1cc(F)cc2c1C(C(=O)NS(=O)(=O)c1cnn(C3CC3)c1)CC2(C)C (centres unmarked) [Example 7, N-((1-Cyclopropyl-1H-pyrazol-4-yl)sulfonyl)-5-fluoro-7-isopropyl-3,3-dimethyl-2,3-dihydro-1H-indene-1-carboxamide] | 5 to 10
26 | CC(C)c1cc(F)cc(C(C)C)c1NC(=O)NS(=O)(=O)c1ccn(CC(F)(F)F)n1 [Example 78, N-((4-Fluoro-2,6-diisopropylphenyl)carbamoyl)-1-(2,2,2-trifluoroethyl)-1H-pyrazole-3-sulfonamide, sodium salt] | 1 to 5
27 | CC(C)c1cc(F)cc(C(C)C)c1CC(=O)NS(=O)(=O)c1ncc(C(C)(C)O)s1 [Example 30, 2-(4-Fluoro-2,6-diisopropylphenyl)-N-((5-(2-hydroxypropan-2-yl)thiazol-2-yl)sulfonyl)acetamide] | 1 to 5
28 | CC(C)c1cc(F)cc2c1C(C(=O)NS(=O)(=O)c1ccn(C(C)C)n1)CC2(C)C (centres unmarked) [Example 10, 5-Fluoro-7-isopropyl-N-((1-isopropyl-1H-pyrazol-3-yl)sulfonyl)-3,3-dimethyl-2,3-dihydro-1H-indene-1-carboxamide, potassium salt (rotamer P2)] | 5 to 10
29 | CC(C)n1ccc(S(=O)(=O)NC(=O)Nc2c3c(c(Br)c4c2CCC4)CCC3)n1 [Example 38, N-((8-Bromo-1,2,3,5,6,7-hexahydro-s-indacen-4-yl)carbamoyl)-1-isopropyl-1H-pyrazole-3-sulfonamide] | < 0.25
30 | Cc1cc(C(C)(C)O)ccc1S(=O)(=O)NC(=O)C1CC(C)(C)c2cc(F)cc(C(C)C)c21 (centres unmarked) [Example 1, 5-Fluoro-N-((4-(2-hydroxypropan-2-yl)-2-methylphenyl)sulfonyl)-7-isopropyl-3,3-dimethyl-2,3-dihydro-1H-indene-1-carboxamide] | 5 to 10
31 | COc1cc(-c2cc(F)cc(C(C)C)c2CCC(=O)NS(=O)(=O)c2ccc(CN(C)C)cc2)ccn1 [Example 4, N-((4-((Dimethylamino)methyl)phenyl)sulfonyl)-3-(4-fluoro-2-isopropyl-6-(2-methoxypyridin-4-yl)phenyl)propanamide, potassium salt] | 5 to 10
32 | CC(C)c1cc(C#N)cc(C(C)C)c1NC(=O)NS(=O)(=O)c1cnn(C(C)C)c1 [Example 75, N-((4-Cyano-2,6-diisopropylphenyl)carbamoyl)-1-isopropyl-1H-pyrazole-4-sulfonamide] | 1 to 5
